# In US10251889B2, “Substituted pyrazolo[1,5-a]pyrimidine compounds as Trk kinase inhibitors” (Array BioPharma, Inc., priority 2009, dated 2019):
# Target: Jak2 (human Jak2 kinase domain, amino acids 808-1132) (Homo sapiens (Human), UniProt O60674)
# Assay: Jak2 inhibition assay (Omnia kinase assay)
# Format: biochemical
# Settings: read-out: Jak2 Enzyme (% inhibition at 1000 nM), Table 1; 1000 nM test compound
# Sequence of Jak2 (human Jak2 kinase domain, amino acids 808-1132) (O60674 808-1132): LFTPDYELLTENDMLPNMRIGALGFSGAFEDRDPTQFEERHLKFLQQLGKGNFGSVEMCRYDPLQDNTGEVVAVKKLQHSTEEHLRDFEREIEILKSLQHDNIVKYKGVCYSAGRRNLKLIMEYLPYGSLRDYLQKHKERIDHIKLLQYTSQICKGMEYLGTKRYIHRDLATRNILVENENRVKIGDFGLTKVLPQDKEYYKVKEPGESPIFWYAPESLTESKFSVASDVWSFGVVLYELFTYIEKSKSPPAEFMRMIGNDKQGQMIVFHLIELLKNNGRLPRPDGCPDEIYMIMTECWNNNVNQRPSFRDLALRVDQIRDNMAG
row,SMILES,inhibition at 1 µM [%]
1,"C[C@@H](CO)NC(=O)c1cnn2ccc(N3CCC[C@@H]3c3cc(F)ccc3F)nc12 [Example 177, 5-((R)-2-(2,5-difluorophenyl)pyrrolidin-1-yl)-N-((S)-1-hydroxypropan-2-yl)pyrazolo[1,5-a]pyrimidine-3-carboxamide]",26.2
2,"CC[C@@H](CO)NC(=O)c1cnn2ccc(N3CCC[C@@H]3c3cc(F)ccc3F)nc12 [Example 178, 5-((R)-2-(2,5-difluorophenyl)pyrrolidin-1-yl)-N-((S)-1-hydroxybutan-2-yl)pyrazolo[1,5-a]pyrimidine-3-carboxamide]",16.9
3,"CC(C)[C@@H](CO)NC(=O)c1cnn2ccc(N3CCC[C@@H]3c3cc(F)ccc3F)nc12 [Example 179, 5-((R)-2-(2,5-difluorophenyl)pyrrolidin-1-yl)-N-((S)-1-hydroxy-3-methylbutan-2-yl)pyrazolo[1,5-a]pyrimidine-3-carboxamide]",-0.2
4,"CC(C)(C)[C@@H](CO)NC(=O)c1cnn2ccc(N3CCC[C@@H]3c3cc(F)ccc3F)nc12 [Example 180, 5-((R)-2-(2,5-difluorophenyl)pyrrolidin-1-yl)-N-((S)-1-hydroxy-3,3-dimethylbutan-2-yl)pyrazolo[1,5-a]pyrimidine-3-carboxamide]",-0.8
5,"Cc1ncc(F)cc1[C@H]1CCCN1c1ccn2ncc(C(=O)NC(C)(C)C)c2n1 [Example 183, (R)-N-tert-butyl-5-(2-(5-fluoro-2-methylpyridin-3-yl)pyrrolidin-1-yl)pyrazolo[1,5-a]pyrimidine-3-carboxamide]",-0.8
6,"Cc1ncc(F)cc1[C@H]1CCCN1c1ccn2ncc(C(=O)NC(C)C)c2n1 [Example 184, (R)-5-(2-(5-fluoro-2-methylpyridin-3-yl)pyrrolidin-1-yl)-N-isopropylpyrazolo[1,5-a]pyrimidine-3-carboxamide]",11.8
7,"CNC(=O)c1cnn2ccc(N3CCC[C@@H]3c3cc(F)cnc3C)nc12 [Example 186, (R)-5-(2-(5-fluoro-2-methylpyridin-3-yl)pyrrolidin-1-yl)-N-methylpyrazolo[1,5-a]pyrimidine-3-carboxamide]",10.5
8,"Cc1ncc(F)cc1[C@H]1CCCN1c1ccn2ncc(C(=O)NCCO)c2n1 [Example 188, (R)-5-(2-(5-fluoro-2-methylpyridin-3-yl)pyrrolidin-1-yl)-N-(2-hydroxyethyl)pyrazolo[1,5-a]pyrimidine-3-carboxamide]",9.3
9,"Cc1ncc(F)cc1[C@H]1CCCN1c1ccn2ncc(C(=O)NC[C@@H](C)O)c2n1 [Example 189, (R)-5-(2-(5-fluoro-2-methylpyridin-3-yl)pyrrolidin-1-yl)-N-((R)-2-hydroxypropyl)pyrazolo[1,5-a]pyrimidine-3-carboxamide]",4.6
10,"COCCNC(=O)c1cnn2ccc(N3CCC[C@@H]3c3cc(F)cnc3C)nc12 [Example 191, (R)-5-(2-(5-fluoro-2-methylpyridin-3-yl)pyrrolidin-1-yl)-N-(2-methoxyethyl)pyrazolo[1,5-a]pyrimidine-3-carboxamide]",4.8
11,"Cc1ncc(F)cc1[C@H]1CCCN1c1ccn2ncc(C(=O)N3CC(O)C3)c2n1 [Example 192, (R)-(5-(2-(5-fluoro-2-methylpyridin-3-yl)pyrrolidin-1-yl)pyrazolo[1,5-a]pyrimidin-3-yl)(3-hydroxyazetidin-1-yl)methanone]",0.3
12,"Cc1ncc(F)cc1[C@H]1CCCN1c1ccn2ncc(C(=O)NC3(CO)CC3)c2n1 [Example 193, (R)-5-(2-(5-fluoro-2-methylpyridin-3-yl)pyrrolidin-1-yl)-N-(1-(hydroxymethyl)cyclopropyl)-pyrazolo[1,5-a]pyrimidine-3-carboxamide]",8.4
13,"Cc1ncc(F)cc1[C@H]1CCCN1c1ccn2ncc(C(=O)N[C@H]3CC[C@H](O)C3)c2n1 [Example 196, 5-((R)-2-(5-fluoro-2-methylpyridin-3-yl)pyrrolidin-1-yl)-N-((1S,3S)-3-hydroxycyclopentyl)pyrazolo[1,5-a]pyrimidine-3-carboxamide]",10.6
14,"Cc1ncc(F)cc1[C@H]1CCCN1c1ccn2ncc(C(=O)N[C@@H]3CCC[C@H]3O)c2n1 [Example 197, 5-((R)-2-(5-fluoro-2-methylpyridin-3-yl)pyrrolidin-1-yl)-N-((1R,2R)-2-hydroxycyclopentyl)pyrazolo[1,5-a]pyrimidine-3-carboxamide]",3.6
15,"Cc1ncc(F)cc1[C@H]1CCCN1c1ccn2ncc(C(=O)N[C@H]3CN4CCC3CC4)c2n1 [Example 198, 5-((R)-2-(5-fluoro-2-methylpyridin-3-yl)pyrrolidin-1-yl)-N-((R)-quinuclidin-3-yl)pyrazolo[1,5-a]pyrimidine-3-carboxamide]",1.6
16,"CCc1ncc(F)cc1[C@H]1CCCN1c1ccn2ncc(C(=O)N[C@H]3CC[C@H](O)CC3)c2n1 [Example 199, 5-((R)-2-(2-ethyl-5-fluoropyridin-3-yl)pyrrolidin-1-yl)-N-((trans)-4-hydroxycyclohexyl)pyrazolo[1,5-a]pyrimidine-3-carboxamide]",38.8
17,"CC(C)(C)NC(=O)c1cnn2ccc(N3CCC[C@@H]3c3cc(F)c[nH]c3=O)nc12 [Example 202, (R)—N-tert-butyl-5-(2-(5-fluoro-2-oxo-1,2-dihydropyridin-3-yl)pyrrolidin-1-yl)pyrazolo[1,5-a]pyrimidine-3-carboxamide]",11.5
18,"CC1(C)OCC(COc2ccc(F)cc2[C@H]2CCCN2c2ccn3ncc(C(=O)NC4CC4)c3n2)O1 (stereo partly drawn) [Example 204, N-cyclopropyl-5-((2R)-2-(2-((2,2-dimethyl-1,3-dioxolan-4-yl)methoxy)-5-fluorophenyl)pyrrolidin-1-yl)pyrazolo[1,5-a]pyrimidine-3-carboxamide]",37
19,"CC1(C)OCC(COc2ccc(F)cc2[C@H]2CCCN2c2ccn3ncc(C(N)=O)c3n2)O1 (stereo partly drawn) [Example 205, 5-((2R)-2-(2-((2,2-dimethyl-1,3-dioxolan-4-yl)methoxy)-5-fluorophenyl)pyrrolidin-1-yl)pyrazolo[1,5-a]pyrimidine-3-carboxamide]",7.2
20,"CC1(C)OCC(COc2cc(F)cc([C@H]3CCCN3c3ccn4ncc(C(=O)NC5CC5)c4n3)c2)O1 (stereo partly drawn) [Example 206, N-cyclopropyl-5-((2R)-2-(3-((2,2-dimethyl-1,3-dioxolan-4-yl)methoxy)-5-fluorophenyl)pyrrolidin-1-yl)pyrazolo[1,5-a]pyrimidine-3-carboxamide]",12.6
21,"O=C(NC1CC1)c1cnn2ccc(N3CCC[C@@H]3c3cc(F)cc(OCC(O)CO)c3)nc12 (stereo partly drawn) [Example 208, N-cyclopropyl-5-((2R)-2-(3-(2,3-dihydroxypropoxy)-5-fluorophenyl)pyrrolidin-1-yl)pyrazolo[1,5-a]pyrimidine-3-carboxamide]",21.2
22,"NC(=O)c1cnn2ccc(N3CCC[C@@H]3c3cc(F)cc(OCC(O)CO)c3)nc12 (stereo partly drawn) [Example 209, 5-((2R)-2-(3-(2,3-dihydroxypropoxy)-5-fluorophenyl)pyrrolidin-1-yl)pyrazolo[1,5-a]pyrimidine-3-carboxamide]",5.4
23,"O=C(NC1CC1)c1cnn2ccc(N3CCC[C@@H]3c3cc(F)ccc3OCC(O)CO)nc12 (stereo partly drawn) [Example 210, N-cyclopropyl-5-((2R)-2-(2-(2,3-dihydroxypropoxy)-5-fluorophenyl)pyrrolidin-1-yl)pyrazolo[1,5-a]pyrimidine-3-carboxamide]",32.3
